Assay in all cases: biochemical
Assay [1] concerns the target Leishmonia pneumophila virulence Cyclosporin A receptor with 18 kDa molecular weight, LpCyp18 (Legionella pneumophila subsp. pneumophila, UniProt Q5ZRZ4).
The target in assay [2] is T1, Bacterial Juglon sensitive non proteolytic enzyme, EcParv (Escherichia coli, UniProt P0A9L5).
T1 sequence (P0A9L5 1-93): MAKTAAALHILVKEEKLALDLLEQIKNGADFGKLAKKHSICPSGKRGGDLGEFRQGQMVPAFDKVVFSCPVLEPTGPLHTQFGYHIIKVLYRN

Assay [3] deals with First described human Rapamycin receptor, hFKBP12 (Homo sapiens, UniProt P62942).
Chain of First described human Rapamycin receptor, hFKBP12 (P62942 whole entry): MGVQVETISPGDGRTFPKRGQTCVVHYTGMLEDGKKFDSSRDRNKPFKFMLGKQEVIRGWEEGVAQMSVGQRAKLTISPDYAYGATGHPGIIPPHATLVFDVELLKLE
For assay [4], the target named is Human Cyclosporin A receptor with 18 kDa molecular weight, hCyp18 (Homo sapiens, UniProt P62937).
Chain of Human Cyclosporin A receptor with 18 kDa molecular weight, hCyp18 (P62937 whole entry): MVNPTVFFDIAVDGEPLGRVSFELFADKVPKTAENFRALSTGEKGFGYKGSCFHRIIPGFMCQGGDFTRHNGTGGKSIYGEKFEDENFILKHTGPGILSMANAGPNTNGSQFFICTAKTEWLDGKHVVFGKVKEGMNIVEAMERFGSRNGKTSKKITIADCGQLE

Some results are limits rather than exact numbers.

Chain of Leishmonia pneumophila virulence Cyclosporin A receptor with 18 kDa molecular weight, LpCyp18 (Q5ZRZ4 1-164 limits assumed): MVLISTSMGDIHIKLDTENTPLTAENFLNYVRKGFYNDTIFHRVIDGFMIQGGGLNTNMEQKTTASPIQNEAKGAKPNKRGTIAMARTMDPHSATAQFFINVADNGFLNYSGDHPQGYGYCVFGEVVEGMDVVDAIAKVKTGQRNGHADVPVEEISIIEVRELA

One may read the IC50 as the concentration needed to halve the response being measured. A low value points to greater potency. Take `N#CCCNC(=S)Nc1ccc([N+](=O)[O-])cc1` [Compound 4]: the IC50 was above 100 µM in assay [1], 10 to 50 µM in assay [2], above 100 µM in assay [3] and above 100 µM in assay [4].

These data come from patent publication EP1433779A1, “Use of nitriles as inhibitors of non-proteolytic enzymes” (Jerini AG, priority 2002, dated 2004).
